This note sets out measurements from US6372787B1 (dated 2002).

SMILES strings stand for the structures.

`CON=C(C(C)=NN=Cc1ccccc1C(=NOC)C(=O)OC)c1ccc(Cl)cc1` had a melting point of 118 to 119 °C.
